Laboratory results reported in patent publication US4853221A, “Method for treating non-small cell lung cancer, head and neck cancers and breast cancer” (Warner-Lambert Company, priority 1987, dated 1989).

Assays:
L1210 cells = test: Inhibition of L1210 cell growth in vitro; format: cell-based, murine
Procedure: (§1) Two leukemia cell lines (L1210 and L5178Y) and two solid tumor cell lines (Sarcoma 180 and Walker 256) were used in these studies.
(§2) Logarithmically growing L1210 cells (approximately 3×10^5 cells/ml) were diluted with Fischer's medium (containing 10% horse serum) to an approximate concentration of 5×10^4 cells/ml. Cells were planted in duplicate into 15 ml culture tubes containing either no drug or various amounts of drug, and incubated for 48 hours at 37° C. before being counted.
*ED50 = the concentration of drug required to reduce the cell count
to 50%, determined by plotting the cell count versus drug concentration.

[1] = tested on: murine tumor cell lines (L5178Y, Sarcoma-180, Walker-256); test: Comparison with methotrexate against murine tumor cell lines in vitro; format: cell-based; details: all of the murine tumor cell lines tested
Procedure: as §1, §2
(§3) Trimetrexate was also evaluated in a similar manner side-by-side with methotrexate for its effect on the growth of three additional murine cell lines (L5178Y, Sarcoma-180, and Walkler-256) and three human cell lines (acute myelogenous leukemia K-562, T-cell 8402, and B-cell 8392), propagated in vitro.

B-Cell 8392 = test: Inhibition of B-Cell 8392 growth in vitro; format: cell-based, human; details: 48 h; Human B-Cell 8392; read-out: ED50 (the source's name)
Procedure: as §2, §3

AML K-562 = test: Inhibition of AML K-562 cell growth in vitro; format: cell-based, human; details: K562, 48 h; Human AML K-562; read-out: ED50 (the source's name)
Procedure: as §2, §3

Ovarian tumor = test: Human tumor cloning system, ovarian tumors; format: cell-based; details: one hour, 6 specimens
Text: (§4) The activity of trimetrexate was compared with that of methotrexate in tests with a human tumor cloning system (Latham, et al., Proc. Am. Assoc. Cancer Res., 24: 278 (1983)). The data from these tests appear in Table III were the activities are expressed as the numbers of tumors with 50% or greater reduction in tumor colony forming units after one hour exposure to the drug.

cancer of the pancreas = test: Phase I clinical trials, cancer of the pancreas; format: in vivo, human; details: single agent
Procedure: Several Phase I clinical trials employing trimetrexate in human patients were carried out. In one study, 36 patients were treated with trimetrexate as a single agent at daily doses of 0.5 mg/m^2 /day to 12 mg/m^2 /day administered intravenously for five days.
In additional Phase I clinical studies, patients were administered trimetrexate with single intravenous doses ranging between 5 and 450 mg/m^2 and with weekly doses of slightly greater than 100 mg/m^2.

[2] = tested on: non-small cell lung cancer; test: Phase II trial, non-small cell lung cancer; format: in vivo, human
Procedure: The efficacy and safety of trimetrexate in the treatment of patients with non-small cell lung cancer was evaluated in a 16-center Phase II study.
Initially, all patients received a single 8 mg/m^2 dose of trimetrexate daily for five days of a 21-day treatment course. The dose was administered at three- or four-week intervals, with the number of treatment courses dependent upon the patient's response.
Objective response was determined by a decrease from baseline in tumor size as set forth by the World Health Organization (WHO) response criteria. Duration of response was measured from the date of first treatment to the first date when progressive disease was documented.
Responses were classified as complete or partial. A complete response was defined as no evidence of disease and a partial response as a 50% or greater decrease in overall tumor size without evidence of progression in 28 days.

Oral bioavailability = details: in vivo, administered orally
[3] = tested on: human cell lines (K-562, T-cell 8402, B-cell 8392); test: Comparison with methotrexate against human cell lines in vitro; format: cell-based
Procedure: as §2, §3

[4] = tested on: transplanted rodent tumors which are resistant to methotrexate; test: Activity against methotrexate-resistant transplanted rodent tumors; details: in vivo
CD8F1 Mammary tumor = test: Antitumor activity against CD8F1 mammary tumor in mice; format: in vivo, mouse; details: for Tumor Weight Inhibition % TWI: Sc every 7 days, Days 1,8,15,22,19
Procedure: The growth inhibition properties of 5-methyl-6-[[(3,4,5-trimethoxyphenyl)amino]methyl]-2,4-quinazolinediamine (trimetrexate) against several transplanted murine tumors were evaluated employing the antitumor screening program of the Drug Evaluation Branch of the National Cancer Institute. The protocols for these tests is described in Cancer Chemotherapy Reports, 3: 1-103 (1972). The dosing schedules are results from these tests appear in Table IV.
Mouse Mammary Tumor Was propagated in CD8F1 female mice as spontaneous tumors. Approximately 10^6 cells were then implanted subcutaneously into CD8F1 mice. […] At the end of the experiment (30 days), individual tumor weights were determined by caliper measurements. Each tumor weight was calculated as described previously for colon 26 and 38 tumors. A criterion of % T/C tumor weight of 42% or less was considered indicative of activity, with a reproducible 10% T/C tumor weight or less indicative of substantive activity.
In all of the mouse tumor studies described above, routine controls consisted of matching ten normal mice (with no tumors) to each tumor-bearing treatment group and injecting them with the same drug at the same dosages, schedules, days of administration, and drug route as the tumor-bearing mice. In this way, drug-induced toxicity (lethality and weight loss) could be clearly separated from the effects of the drug on the tumors.

Colon tumor = test: Human tumor cloning system, colon tumors; format: cell-based; details: one hour, 9 specimens
Text: as §4

## COc1cc(NCc2ccc3nc(N)nc(N)c3c2C)cc(OC)c1OC [Trimetrexate, 5-methyl-6-[[(3,4,5-trimethoxyphenyl)amino]methyl]-2,4-quinazolinediamine]
L1210 cells
  inhibition of L1210 cell growth: potent inhibitor of L1210 cell growth
L1210 cells; Mus musculus, L1210, concentration required to reduce the cell count to 50%, 48 hours at 37° C, read-out: ED50 for L1210 Cells
  IC50: 7 nM
[1]
  potency relative to methotrexate: more potent than methotrexate
B-Cell 8392
  IC50: 5 nM
AML K-562
  IC50: 10 nM
Ovarian tumor; trimetrexate 0.1 μg/ml
  Number of Tumors with 50% or Greater Decrease in Tumor Colony Forming Units: 1
Ovarian tumor; trimetrexate 1.0 μg/ml
  Number of Tumors with 50% or Greater Decrease in Tumor Colony Forming Units: 1
Cancer of the pancreas
  patients with favorable responses: one
[2]; 23 patients
  patients with stable disease: 39%
[2]; 23 patients with stable disease
  median time to progressive disease: 15.7 weeks
[2]; 25 patients
  patients who only experienced progressive disease: 42%
[2]; 25 patients who only experienced progressive disease
  median time to progression: 3.4 weeks
[2]; 55 of the 59 evaluable patients, range 1.9-75.0
  median time to progressive disease: 7.9 weeks
[2]; 59 evaluable patients, initial 8 mg/m^2 daily for five days of a 21-day course
  patients with partial response: Eleven
[2]; 95% confidence interval 9%-29%, 59 evaluable patients
  response rate (partial response): 19%
[2]; in vivo
  additional patients with 50% regression only by liver measurements: One
  overall median survival time: 26.4 weeks
  patients who only experienced progressive disease (number): 25 patients
  patients with stable disease (number): 23 patients
  patients without progressive disease at end of reporting period: Four
[2]; patients who responded, range 11.1-47.0
  median time to progressive disease: 24.9 weeks
[2]; range 5.6-40.7
  median duration of partial response: 15.3 weeks
Oral bioavailability
  bioavailability: ~80%
[3]
  effectiveness relative to methotrexate: more effective in inhibiting cell growth in vitro than was methotrexate
[4]
  activity against methotrexate-resistant transplanted rodent tumors: activity against a variety of transplanted rodent tumors
CD8F1 Mammary tumor; optimal dose 120 mg/kg (dose range 120-3.75)
  Tumor Weight Inhibition % TWI: 100%
CD8F1 Mammary tumor; optimal dose 180 mg/kg (dose range 270-35)
  Tumor Weight Inhibition % TWI: 100%
CD8F1 Mammary tumor; subcutaneously implanted
  antitumor activity: good activity
Colon tumor; trimetrexate 0.1 μg/ml
  Number of Tumors with 50% or Greater Decrease in Tumor Colony Forming Units: 4
Colon tumor; trimetrexate 1.0 μg/ml
  Number of Tumors with 50% or Greater Decrease in Tumor Colony Forming Units: 4
